In the supplement of paper PMC10307832:

Assays:
Assay in all cases: relative viability (nuclei count vs DMSO), 5 days (fraction); higher = more cells survive
AZ505 + Palbociclib = compound: C1CCC(CC1)N(CCNCCC2=C3C(=C(C=C2)O)NC(=O)CO3)C(=O)CCNCCC4=CC(=C(C=C4)Cl)Cl [AZ505] + CC(=O)c1c(C)c2cnc(Nc3ccc(N4CCNCC4)cn3)nc2n(C2CCCC2)c1=O [Palbociclib] (partner 0.5 µM)
Procedure, shortened: (§1)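 Lung cancer cell lines were seeded in 1536-well plates and dosed by pin tool the next day, with either a single drug or a fixed anchor-drug dose combined with five library-drug doses (not always all listed) spaced in √10 steps. Five days later, one step fixed the cells and stained their nuclei (final 0.05% Triton X-100, 1% formaldehyde, 1 ug/ml Hoechst), and nuclei were counted on 4× images. Relative viability is the nuclei count in treated wells divided by the count in vehicle wells, and each value is the median of duplicate plates.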

AZ505 + Pemetrexed = compound: C1CCC(CC1)N(CCNCCC2=C3C(=C(C=C2)O)NC(=O)CO3)C(=O)CCNCCC4=CC(=C(C=C4)Cl)Cl [AZ505] + Nc1nc2[nH]cc(CCc3ccc(C(=O)N[C@@H](CCC(=O)O)C(=O)O)cc3)c2c(=O)[nH]1 [Pemetrexed] (partner 0.2 µM)
Procedure, shortened: as §1

Dactolisib + Alpelisib = compound: Cn1c(=O)n(-c2ccc(C(C)(C)C#N)cc2)c2c3cc(-c4cnc5ccccc5c4)ccc3ncc21 [Dactolisib] + Cc1nc(NC(=O)N2CCC[C@H]2C(N)=O)sc1-c1ccnc(C(C)(C)C(F)(F)F)c1 [Alpelisib] (partner 2 µM)
Procedure, shortened: as §1

Dactolisib + Decitabine = compound: Cn1c(=O)n(-c2ccc(C(C)(C)C#N)cc2)c2c3cc(-c4cnc5ccccc5c4)ccc3ncc21 [Dactolisib] + Nc1ncn([C@H]2C[C@H](O)[C@@H](CO)O2)c(=O)n1 [Decitabine] (partner 2 µM)
Procedure, shortened: as §1

| Cell Line | relative viability (AZ505 + Palbociclib; first compound 0.08 µM) | relative viability (AZ505 + Palbociclib; first compound 0.253 µM) | relative viability (AZ505 + Palbociclib; first compound 0.8 µM) | relative viability (AZ505 + Palbociclib; first compound 2.53 µM) | relative viability (AZ505 + Palbociclib; first compound 8 µM) | relative viability (AZ505 + Pemetrexed; first compound 0.08 µM) | relative viability (AZ505 + Pemetrexed; first compound 0.253 µM) | relative viability (AZ505 + Pemetrexed; first compound 0.8 µM) | relative viability (AZ505 + Pemetrexed; first compound 2.53 µM) | relative viability (AZ505 + Pemetrexed; first compound 8 µM) | relative viability (Dactolisib + Alpelisib; first compound 0.002 µM) | relative viability (Dactolisib + Alpelisib; first compound 0.006325 µM) | relative viability (Dactolisib + Alpelisib; first compound 0.02 µM) | relative viability (Dactolisib + Alpelisib; first compound 0.06325 µM) | relative viability (Dactolisib + Alpelisib; first compound 0.2 µM) | relative viability (Dactolisib + Decitabine; first compound 0.002 µM) | relative viability (Dactolisib + Decitabine; first compound 0.006325 µM) | relative viability (Dactolisib + Decitabine; first compound 0.02 µM) | relative viability (Dactolisib + Decitabine; first compound 0.06325 µM) | relative viability (Dactolisib + Decitabine; first compound 0.2 µM) |
| --- | --- | --- | --- | --- | --- | --- | --- | --- | --- | --- | --- | --- | --- | --- | --- | --- | --- | --- | --- | --- |
| NCI-H1915 | 0.528 | 0.528 | 0.478 | 0.44 | 0.473 | 0.541 | 0.492 | 0.534 | 0.614 | 0.525 | 1.1 | 1.06 | 1.05 | 0.747 | 0.519 | 0.291 | 0.259 | 0.266 | 0.285 | 0.251 |
| NCI-H1793 | 0.293 | 0.271 | 0.3 | 0.307 | 0.347 | 0.863 | 0.756 | 0.878 | 0.851 | 1.06 | 0.588 | 0.4 | 0.241 | 0.21 | 0.157 | 0.454 | 0.319 | 0.266 | 0.231 | 0.172 |
| NCI-H2023 | 0.368 | 0.405 | 0.345 | 0.365 | 0.345 | 0.219 | 0.221 | 0.244 | 0.221 | 0.244 | 0.54 | 0.56 | 0.553 | 0.147 | 0.153 | 0.224 | 0.225 | 0.218 | 0.115 | 0.0931 |
| COR-L 105 | 0.399 | 0.405 | 0.369 | 0.406 | 0.399 | 0.979 | 1.05 | 1.06 | 1.1 | 1.14 | 1.02 | 0.915 | 1.12 | 0.436 | 0.297 | 0.578 | 0.629 | 0.598 | 0.395 | 0.326 |
| RERF-LC-KJ | 0.982 | 1.15 | 1.05 | 1 | 0.984 | 0.448 | 0.454 | 0.505 | 0.449 | 0.434 | 0.806 | 0.818 | 0.742 | 0.543 | 0.551 | 0.752 | 0.726 | 0.644 | 0.316 | 0.443 |
| LXF-289 | 0.552 | 0.608 | 0.568 | 0.594 | 0.588 | 0.84 | 0.92 | 0.785 | 0.932 | 0.903 | 1.12 | 0.973 | 1.01 | 0.927 | 0.597 | 0.455 | 0.4 | 0.388 | 0.357 | 0.399 |
| PC-14 | 0.402 | 0.439 | 0.456 | 0.471 | 0.595 | 0.122 | 0.138 | 0.127 | 0.146 | 0.166 | 0.946 | 0.932 | 0.887 | 0.407 | 0.252 | 0.333 | 0.222 | 0.261 | 0.161 | 0.138 |
| NCI-H650 | 0.279 | 0.377 | 0.322 | 0.395 | 0.309 | 0.86 | 0.875 | 1.01 | 1.12 | 0.881 | 1.19 | 0.964 | 1.01 | 0.46 | 0.507 | 0.488 | 0.27 | 0.364 | 0.282 | 0.302 |
| NCI-H1666 | 0.625 | 0.648 | 0.621 | 0.72 | 0.601 | 0.81 | 0.835 | 0.736 | 0.85 | 0.841 | 1.08 | 0.83 | 0.806 | 0.506 | 0.402 | 0.836 | 0.714 | 0.756 | 0.607 | 0.596 |
| NCI-H2085 | 0.451 | 0.469 | 0.459 | 0.477 | 0.446 | 0.832 | 0.758 | 0.78 | 0.835 | 0.965 | 1.05 | 0.762 | 0.758 | 0.437 | 0.405 | 0.685 | 0.496 | 0.514 | 0.405 | 0.373 |
| NCI-H1734 | 0.351 | 0.373 | 0.324 | 0.411 | 0.338 | 0.405 | 0.351 | 0.392 | 0.398 | 0.416 | 0.686 | 0.582 | 0.586 | 0.361 | 0.233 | 0.542 | 0.491 | 0.478 | 0.341 | 0.259 |
| NCI-H2126 | 0.353 | 0.375 | 0.365 | 0.366 | 0.338 | 0.58 | 0.628 | 0.719 | 0.713 | 0.629 | 0.751 | 0.702 | 0.639 | 0.518 | 0.425 | 0.645 | 0.663 | 0.55 | 0.462 | 0.416 |
| EMC-BAC-2 | 0.437 | 0.528 | 0.496 | 0.509 | 0.526 | 0.412 | 0.491 | 0.417 | 0.499 | 0.451 | 0.802 | 0.708 | 0.69 | 0.542 | 0.374 | 1.01 | 0.861 | 0.888 | 0.54 | 0.551 |
| NCI-H1993 | 0.599 | 0.705 | 0.621 | 0.583 | 0.713 | 0.63 | 0.66 | 0.568 | 0.651 | 0.677 | 0.711 | 0.561 | 0.754 | 0.694 | 0.684 | 0.722 | 0.503 | 0.511 | 0.389 | 0.46 |
| NCI-H520 | 0.229 | 0.235 | 0.201 | 0.263 | 0.237 | 0.483 | 0.684 | 0.777 | 0.81 | 0.875 | 1.11 | 0.657 | 0.753 | 0.263 | 0.194 | 0.527 | 0.476 | 0.456 | 0.206 | 0.156 |
| NCI-H647 | 0.362 | 0.461 | 0.387 | 0.429 | 0.432 | 0.158 | 0.155 | 0.195 | 0.196 | 0.184 | 1.33 | 0.811 | 0.543 | 0.164 | 0.125 | 0.487 | 0.292 | 0.188 | 0.116 | 0.14 |
| NCI-H1792 | 0.642 |  | 0.619 | 0.612 | 0.696 | 0.702 | 0.509 | 0.609 | 1.01 | 0.901 | 0.783 | 0.671 | 0.549 | 0.165 | 0.125 | 0.56 | 0.429 | 0.414 | 0.186 | 0.121 |
| SW 1573 | 0.342 | 0.393 | 0.389 | 0.441 | 0.4 | 0.761 | 0.851 | 0.928 | 0.869 | 0.876 | 0.94 | 0.784 | 0.682 | 0.322 | 0.33 | 0.556 | 0.336 | 0.299 | 0.185 | 0.149 |
| NCI-H2009 | 0.191 | 0.203 | 0.174 | 0.153 | 0.235 | 1.05 | 1.01 | 0.984 | 1.06 | 1.01 | 1.21 | 1.19 | 1.14 | 0.676 | 0.532 | 0.381 | 0.373 | 0.362 | 0.34 | 0.268 |
| LOU-NH91 | 0.55 | 0.534 | 0.551 | 0.562 | 0.536 | 0.327 | 0.338 | 0.324 | 0.382 | 0.349 | 0.623 | 0.665 | 0.669 | 0.496 | 0.471 | 0.772 | 0.791 | 0.795 | 0.623 | 0.565 |
| NCI-H2405 | 0.427 |  | 0.441 | 0.463 | 0.426 | 0.715 |  | 0.841 | 0.882 | 0.97 | 0.683 | 0.647 | 0.646 | 0.359 | 0.273 | 0.803 | 0.76 | 0.687 | 0.429 | 0.352 |
| LCLC-97TM1 | 0.213 | 0.252 | 0.219 |  | 0.232 | 0.161 | 0.253 | 0.193 |  | 0.175 | 0.304 | 0.218 | 0.186 | 0.134 | 0.151 | 0.261 | 0.24 | 0.23 | 0.172 | 0.155 |
| H3255 | 0.292 | 0.31 | 0.301 | 0.298 | 0.302 | 0.521 | 0.556 | 0.602 | 0.571 | 0.616 | 0.767 | 0.709 | 0.653 | 0.481 | 0.314 | 0.671 | 0.614 | 0.559 | 0.511 | 0.415 |
| SK-MES-1 | 0.31 | 0.316 | 0.26 | 0.294 | 0.32 | 0.81 | 0.909 | 0.875 | 0.949 | 0.882 | 1.06 | 0.842 | 0.833 | 0.474 | 0.406 | 0.43 | 0.362 | 0.369 | 0.251 | 0.231 |
| NCI-H1437 | 0.309 | 0.33 | 0.314 | 0.335 | 0.301 | 0.334 | 0.314 | 0.29 | 0.336 | 0.322 | 1 | 0.991 | 0.918 | 0.836 | 0.81 | 0.716 | 0.551 | 0.676 | 0.569 | 0.482 |
| LU99A | 0.363 | 0.447 | 0.403 |  | 0.367 | 0.199 | 0.22 | 0.19 |  | 0.199 | 0.483 | 0.333 | 0.273 | 0.242 | 0.192 | 0.906 | 0.723 | 0.602 | 0.373 | 0.261 |
| HCC-827 | 0.416 | 0.551 | 0.374 | 0.509 | 0.525 | 0.288 | 0.269 | 0.288 | 0.264 | 0.266 | 0.964 | 1.01 | 0.943 | 0.468 | 0.359 | 0.387 | 0.343 | 0.337 | 0.27 | 0.294 |
